Reference: patent US5424326A, “Phenyl-1,2,5-oxadiazolecarboxamide-2-oxides, their preparation and their use” (Cassella Aktiengesellschaft, priority 1992, dated 1995)

Test system: pulmonary artery of the guinea-pig
Experiment: relaxation of potassium-depolarised pulmonary artery strips of the guinea-pig (CaCl2-induced contraction)
Details: 40 mmol/l potassium, 0.5 mmol/l CaCl2; cumulative addition; average value of 4 to 6 vessel strips; read-out: IC50 (concentration which inhibits the contraction by 50%)
Protocol: In this method, spiral strips of the pulmonary artery of the guinea-pig are depolarised with 40 mmol/l of potassium after equiliberation in calcium-free Tyrode solution. An addition of 0.5 mmol/l of CaCl2 then induces a contraction.
The relaxing action of the test substance is determined by cumulative addition in 1/2 log 10 graded concentrations.

Going from “N-(3-Diethylaminopropyl)-3-phenyl-1,2,5-oxadiazole-4-carboxamide-2-oxide [Compound 6a]” to “N-Butyl-3-phenyl-1,2,5-oxadiazole-4-carboxamide-2-oxide [Compound 5a]”, the IC50 rises from 400 nM to 700 nM (1.8-fold).

“N-Methyl-3-(3,4-dimethoxyphenyl)-1,2,5-oxadiazole-4-carboxamide-2-oxide [Compound 4a]” was tested, and the IC50 was 5000 nM.

Same assay, conditions: Cavia porcellus; 40 mmol/l potassium, 0.5 mmol/l CaCl2; cumulative addition; average value of 4 to 6 vessel strips; read-out: IC50 (concentration which inhibits the contraction by 50%)

`O=[N+]([O-])OC1COC2C(O)COC12` (stereo not shown) [Isosorbide-5-mononitrate, reference compound] and `CCOC(=O)[N-]c1cn(N2CCOCC2)n[o+]1` [Molsidomine, reference compound] cannot be ordered by IC50: over 100000 nM for the first, 300000 nM for the second.

`NC(=O)CNC(=O)c1c(-c2ccccc2)no[n+]1[O-]` [Compound 10a] and `CNC(=O)c1c(-c2ccccc2)no[n+]1[O-]` [Compound 1a, N-Methyl-4-phenyl-1,2,5-oxadiazole-3-carboxamide-2-oxide] are the same in IC50: 1000 nM for the first, 1000 nM for the second.

First: O=C(NCc1cccnc1)c1no[n+]([O-])c1-c1ccccc1 [Compound 7b]
Second: O=C(NCc1cccnc1)c1c(-c2ccccc2)no[n+]1[O-] [Compound 7a]
The IC50 of the first is 6.7-fold higher: 2000 nM for the first, 300 nM for the second.

Compared with `CC(C)N(CCNC(=O)c1no[n+]([O-])c1-c1ccccc1)C(C)C` [Compound 12b], `COc1ccc(-c2no[n+]([O-])c2C(=O)NCCN(C(C)C)C(C)C)cc1OC` [Compound 13a] is 6.7-fold lower in IC50: 2000 nM for the first, 300 nM for the second. The second is the more potent here.

Going from `O=C(NCc1ccncc1)c1c(-c2ccccc2)no[n+]1[O-]` [Compound 14a] to `O=C(NCc1ccncc1)c1no[n+]([O-])c1-c1ccccc1` [Compound 14b], the IC50 rises from 500 nM to 1000 nM (2-fold).
